Assay results as given in patent US10385103B2, “Cell-permeable (ICP)-SOCS3 recombinant protein and uses thereof” (CELLIVERY THERAPEUTICS, INC., priority 2014, dated 2019).

Tested on: RAW 264.7 cells
Test: Quantitative cell-permeability of FITC-labeled aMTD- or rPeptide-fused CRA recombinant proteins (flow cytometry)
Assay type: cell-based
Settings: for Relative Ratio to aMTD AVE: cell-permeability of rPeptide-fused CRA recombinant protein relative to average of 240 aMTDs
Procedure, shortened: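 Uptake of fluorescently labeled, peptide-fused cargo proteins was quantified by flow cytometry (Guava, Millipore) and analyzed in FlowJo software. RAW 264.7 cells received 10 μM FITC-labeled protein for 1 hour at 37° C., were rinsed three times with cold PBS, and were trypsinized with 0.25% tripsin/EDTA for 20 minutes at 37° C. to remove bound protein before measurement. Permeability was expressed relative to reference proteins.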

[1] = cell-permeability of aMTD-fused CRA recombinant protein relative to negative control (A: rP38)
[2] = cell-permeability of aMTD-fused CRA recombinant protein relative to reference CPP (B: MTM12)
[3] = cell-permeability of aMTD-fused CRA recombinant protein relative to reference CPP (C: MTD85)
[4] = 10 μM FITC-labeled, 1 hour, 37° C., RAW 264.7 cells
[5] = cell-permeability relative to negative control rP38 (A type), aMTD-fused CRA recombinant protein, 10 μM FITC-labeled, 1 hour, 37° C., RAW 264.7 cells
[6] = cell-permeability relative to reference CPP MTD85 (C type), aMTD-fused CRA recombinant protein, 10 μM FITC-labeled, 1 hour, 37° C., RAW 264.7 cells
[7] = cell-permeability relative to reference CPP MTM12 (B type), aMTD-fused CRA recombinant protein, 10 μM FITC-labeled, 1 hour, 37° C., RAW 264.7 cells

Which results are given for “844 (VVALLAPLIAAP; Amino acid Sequence of aMTD844) [compound 844]”?
Relative Ratio (Fold) A [1]: 11.2 Fold; Relative Ratio (Fold) B [2]: 7.5 Fold; Relative Ratio (Fold) C [3]: 3.8 Fold

Which “Relative Ratio (Fold) A” value [1] does the source give for “391 (VVAIVLPAVAAP; Amino acid Sequence of aMTD381) [compound 391]” here?
Its value is 11.5 Fold.

And the “Relative Ratio (Fold) B” value [2]?
Its value is 7.7 Fold.

And the “Relative Ratio (Fold) C” value [3]?
Its value is 3.9 Fold.

How did the “Relative Ratio (Fold) A” value [1] turn out when “896 (AILIVVAPIAAP; Amino acid Sequence of aMTD896) [compound 896]” was run?
The value was 57.5 Fold.

What about the “Relative Ratio (Fold) B” value [2] of the same substance?
Its value is 38.5 Fold.

What about the “Relative Ratio (Fold) C” value [3] of the same substance?
The value was 19.4 Fold.

What does the source list for “241 (AAAVVPVLLVAP; Amino acid Sequence of aMTD241) [compound 241]”?
Relative Ratio (Fold) A [1]: 16.6 Fold; Relative Ratio (Fold) B [2]: 11.0 Fold; Relative Ratio (Fold) C [3]: 5.6 Fold; Relative Ratio to aMTD AVE [4]: 0.33

How did the “Relative Ratio (Fold) A” value [1] turn out when “889 (ILVAAAPIAALP; Amino acid Sequence of aMTD889) [compound 889]” was run?
Its value is 30.3 Fold.

And the “Relative Ratio (Fold) B” value [2]?
The value was 20.3 Fold.

What about the “Relative Ratio (Fold) C” value [3] of the same substance?
The value was 10.3 Fold.

For “385 (IVAIAVPALVAP; Amino acid Sequence of aMTD385) [compound 385]”, which “Relative Ratio (Fold) A” value [1] is on record?
Its value is 38.8 Fold.

What about the “Relative Ratio (Fold) B” value [2] of the same substance?
Its value is 25.9 Fold.

And the “Relative Ratio (Fold) C” value [3]?
The value was 13.1 Fold.

How did the “Relative Ratio (Fold) A” value [1] turn out when “365 (AVIVVAPALLAP; Amino acid Sequence of aMTD365) [compound 365]” was run?
Its value is 9.3 Fold.

What about the “Relative Ratio (Fold) B” value [2] of the same substance?
Its value is 6.2 Fold.

What about the “Relative Ratio (Fold) C” value [3] of the same substance?
The value was 3.1 Fold.

And the “Relative Ratio (Fold) A” value [5]?
Its value is 9.3 Fold.

What about the “Relative Ratio (Fold) C” value [6] of the same substance?
The value was 3.1 Fold.

What about the “Relative Ratio (Fold) B” value [7] of the same substance?
The value was 6.2 Fold.

Which results are given for “201 (LALAVPALAALP; Amino acid Sequence of aMTD201) [compound 201]”?
Relative Ratio (Fold) A [5]: 4.2 Fold; Relative Ratio (Fold) C [6]: 1.4 Fold; Relative Ratio (Fold) B [7]: 2.8 Fold

For “2 (AAAVPLLAVVVP; Amino acid Sequence of aMTD2) [compound 2]”, which “Relative Ratio (Fold) A” value [1] is on record?
Its value is 40.9 Fold.

And the “Relative Ratio (Fold) B” value [2]?
Its value is 27.2 Fold.

And the “Relative Ratio (Fold) C” value [3]?
Its value is 13.8 Fold.

And the “Relative Ratio (Fold) A” value (relative cell-permeability of aMTD vs reference A (not defined))?
The value was 40.9 Fold.

What about the “Relative Ratio (Fold) B” value (relative cell-permeability of aMTD vs reference CPP B: MTM12) of the same substance?
The value was 27.2 Fold.

What about the “Relative Ratio (Fold) C” value (relative cell-permeability of aMTD vs reference CPP C: MTD85) of the same substance?
The value was 13.8 Fold.

“227 (LAAIVPIAAAVP; Amino acid Sequence of rPeptide ID 227) [compound 227]” was tested. Which “Relative Ratio to aMTD AVE” value [4] did it give?
The value was 0.08.

“826 (LVALAAPIIAVP; Amino acid Sequence of aMTD826) [compound 826]” was tested. Which “Relative Ratio (Fold) A” value [1] did it give?
The value was 49.2 Fold.

And the “Relative Ratio (Fold) B” value [2]?
The value was 32.9 Fold.

And the “Relative Ratio (Fold) C” value [3]?
The value was 18.6 Fold.

What does the source list for “442 (ALAALVPAVLVP; Amino acid Sequence of aMTD442) [compound 442]”?
Relative Ratio (Fold) A [1]: 20.4 Fold; Relative Ratio (Fold) B [2]: 12.6 Fold; Relative Ratio (Fold) C [3]: 6.9 Fold

“707 (IVALAVLPAVAP; Amino acid Sequence of aMTD707) [compound 707]” was tested. Which “Relative Ratio (Fold) A” value [5] did it give?
The value was 7.3 Fold.

And the “Relative Ratio (Fold) C” value [6]?
The value was 2.5 Fold.

What about the “Relative Ratio (Fold) B” value [7] of the same substance?
Its value is 4.9 Fold.

For “824 (LIIVAAAPAVAP; Amino acid Sequence of aMTD824) [compound 824]”, which “Relative Ratio (Fold) A” value [1] is on record?
Its value is 32.8 Fold.

And the “Relative Ratio (Fold) B” value [2]?
Its value is 21.9 Fold.

What about the “Relative Ratio (Fold) C” value [3] of the same substance?
The value was 11.1 Fold.

“345 (ALLIVAPVAVAP; Amino acid Sequence of aMTD345) [compound 345]” was tested. Which “Relative Ratio (Fold) A” value [1] did it give?
The value was 8.9 Fold.

And the “Relative Ratio (Fold) B” value [2]?
The value was 5.9 Fold.

And the “Relative Ratio (Fold) C” value [3]?
The value was 3.0 Fold.

For “242 (AALLVPALVAAP; Amino acid Sequence of aMTD242) [compound 242]”, which “Relative Ratio (Fold) A” value [1] is on record?
Its value is 14.6 Fold.

And the “Relative Ratio (Fold) B” value [2]?
The value was 9.7 Fold.

What about the “Relative Ratio (Fold) C” value [3] of the same substance?
The value was 4.9 Fold.

How did the “Relative Ratio (Fold) A” value [1] turn out when “666 (AAIAIIAPAIVP; Amino acid Sequence of aMTD666) [compound 666]” was run?
The value was 14.7 Fold.

And the “Relative Ratio (Fold) B” value [2]?
Its value is 9.9 Fold.

And the “Relative Ratio (Fold) C” value [3]?
The value was 5.0 Fold.

How did the “Relative Ratio (Fold) A” value [1] turn out when “905 (AVIAVAPLVVAP; Amino acid Sequence of aMTD905) [compound 905]” was run?
Its value is 44.0 Fold.

And the “Relative Ratio (Fold) B” value [2]?
The value was 29.5 Fold.

And the “Relative Ratio (Fold) C” value [3]?
Its value is 14.9 Fold.

Which results are given for “444 (LAAALVPVALVP; Amino acid Sequence of aMTD444) [compound 444]”?
Relative Ratio (Fold) A [1]: 8.1 Fold; Relative Ratio (Fold) B [2]: 5.4 Fold; Relative Ratio (Fold) C [3]: 2.7 Fold

Which “Relative Ratio (Fold) A” value [1] does the source give for “384 (VIVAIAPALLAP; Amino acid Sequence of aMTD384) [compound 384]” here?
Its value is 14.0 Fold.

And the “Relative Ratio (Fold) B” value [2]?
The value was 9.4 Fold.

And the “Relative Ratio (Fold) C” value [3]?
Its value is 4.7 Fold.

“525 (ALAIVVAPVAVP; Amino acid Sequence of aMTD525) [compound 525]” was tested. Which “Relative Ratio (Fold) A” value [1] did it give?
Its value is 13.8 Fold.

What about the “Relative Ratio (Fold) B” value [2] of the same substance?
Its value is 9.2 Fold.

What about the “Relative Ratio (Fold) C” value [3] of the same substance?
The value was 4.7 Fold.

Which results are given for “686 (AALVAVLPVALP; Amino acid Sequence of aMTD686) [compound 686]”?
Relative Ratio (Fold) A [1]: 19.5 Fold; Relative Ratio (Fold) B [2]: 13.1 Fold; Relative Ratio (Fold) C [3]: 6.6 Fold

Which “Relative Ratio (Fold) A” value [1] does the source give for “482 (ILAVAAIPVAVP; Amino acid Sequence of aMTD482) [compound 482]” here?
The value was 15.8 Fold.

And the “Relative Ratio (Fold) B” value [2]?
The value was 10.6 Fold.

What about the “Relative Ratio (Fold) C” value [3] of the same substance?
The value was 5.3 Fold.

Which results are given for “847 (LVAIVVLPAVAP; Amino acid Sequence of aMTD847) [compound 847]”?
Relative Ratio (Fold) A [1]: 50.2 Fold; Relative Ratio (Fold) B [2]: 33.4 Fold; Relative Ratio (Fold) C [3]: 16.9 Fold

Which “Relative Ratio to aMTD AVE” value [4] does the source give for “635 (GSTGGSQQNNQY; Amino acid Sequence of rPeptide ID 635) [compound 635]” here?
Its value is 0.07.

For “485 (AILAAIVPLAVP; Amino acid Sequence of aMTD485) [compound 485]”, which “Relative Ratio (Fold) A” value [5] is on record?
The value was 6.8 Fold.

And the “Relative Ratio (Fold) C” value [6]?
Its value is 2.3 Fold.

And the “Relative Ratio (Fold) B” value [7]?
The value was 4.5 Fold.

What does the source list for “16 (NNSCTTYTNGSQ; Amino acid Sequence of rPeptide ID 16) [compound 16]”?
Relative Ratio to aMTD AVE [4]: 0.08; Relative Ratio (Fold) A (relative cell-permeability of rPeptide vs reference A (not defined)): 1.6 Fold; Relative Ratio (Fold) B (relative cell-permeability of rPeptide vs reference CPP B: MTM12): 1.1 Fold; Relative Ratio (Fold) C (relative cell-permeability of rPeptide vs reference CPP C: MTD85): 0.5 Fold

Which “Relative Ratio (Fold) A” value [5] does the source give for “85 (LLVLPAAALAAP; Amino acid Sequence of aMTD85) [compound 85]” here?
Its value is 1.9 Fold.

What about the “Relative Ratio (Fold) C” value [6] of the same substance?
Its value is 0.7 Fold.

What about the “Relative Ratio (Fold) B” value [7] of the same substance?
Its value is 1.3 Fold.

Which results are given for “463 (AVAILVPLLAAP; Amino acid Sequence of aMTD463) [compound 463]”?
Relative Ratio (Fold) A [1]: 17.6 Fold; Relative Ratio (Fold) B [2]: 11.7 Fold; Relative Ratio (Fold) C [3]: 5.9 Fold

Which results are given for “283 (AALLAPALIVAP; Amino acid Sequence of aMTD283) [compound 283]”?
Relative Ratio (Fold) A [5]: 3.1 Fold; Relative Ratio (Fold) C [6]: 1.0 Fold; Relative Ratio (Fold) B [7]: 2.0 Fold

What does the source list for “901 (ALVAVLPAVAVP; Amino acid Sequence of aMTD901) [compound 901]”?
Relative Ratio (Fold) A [1]: 7.7 Fold; Relative Ratio (Fold) B [2]: 5.1 Fold; Relative Ratio (Fold) C [3]: 2.6 Fold

How did the “Relative Ratio (Fold) A” value [1] turn out when “848 (AVAIVVLPAVAP; Amino acid Sequence of aMTD848) [compound 848]” was run?
Its value is 10.0 Fold.

What about the “Relative Ratio (Fold) B” value [2] of the same substance?
Its value is 6.7 Fold.

What about the “Relative Ratio (Fold) C” value [3] of the same substance?
Its value is 3.4 Fold.

Which results are given for “282 (VLAVAPALIVAP; Amino acid Sequence of aMTD282) [compound 282]”?
Relative Ratio (Fold) A [1]: 11.8 Fold; Relative Ratio (Fold) B [2]: 7.9 Fold; Relative Ratio (Fold) C [3]: 4.0 Fold
